Laboratory results from paper PMC8131363 (Scientific Reports, 2021).
pEC50: −log10 of the molar value. Read-outs that look alike come from different tables or passages of the source.

Key:
hCaSR = biological target: T1, hCaSR (Homo sapiens, UniProt P41180); assay: hCaSR transiently expressed in HEK293/natClytin, agonist luminescence assay; type: cell-based
T1 construct: expressed in transfected cells; host or cells: HEK293/natClytin (transient, pcDNA6 as delivered by GeneArt)
T1 sequence (P41180 20-1078): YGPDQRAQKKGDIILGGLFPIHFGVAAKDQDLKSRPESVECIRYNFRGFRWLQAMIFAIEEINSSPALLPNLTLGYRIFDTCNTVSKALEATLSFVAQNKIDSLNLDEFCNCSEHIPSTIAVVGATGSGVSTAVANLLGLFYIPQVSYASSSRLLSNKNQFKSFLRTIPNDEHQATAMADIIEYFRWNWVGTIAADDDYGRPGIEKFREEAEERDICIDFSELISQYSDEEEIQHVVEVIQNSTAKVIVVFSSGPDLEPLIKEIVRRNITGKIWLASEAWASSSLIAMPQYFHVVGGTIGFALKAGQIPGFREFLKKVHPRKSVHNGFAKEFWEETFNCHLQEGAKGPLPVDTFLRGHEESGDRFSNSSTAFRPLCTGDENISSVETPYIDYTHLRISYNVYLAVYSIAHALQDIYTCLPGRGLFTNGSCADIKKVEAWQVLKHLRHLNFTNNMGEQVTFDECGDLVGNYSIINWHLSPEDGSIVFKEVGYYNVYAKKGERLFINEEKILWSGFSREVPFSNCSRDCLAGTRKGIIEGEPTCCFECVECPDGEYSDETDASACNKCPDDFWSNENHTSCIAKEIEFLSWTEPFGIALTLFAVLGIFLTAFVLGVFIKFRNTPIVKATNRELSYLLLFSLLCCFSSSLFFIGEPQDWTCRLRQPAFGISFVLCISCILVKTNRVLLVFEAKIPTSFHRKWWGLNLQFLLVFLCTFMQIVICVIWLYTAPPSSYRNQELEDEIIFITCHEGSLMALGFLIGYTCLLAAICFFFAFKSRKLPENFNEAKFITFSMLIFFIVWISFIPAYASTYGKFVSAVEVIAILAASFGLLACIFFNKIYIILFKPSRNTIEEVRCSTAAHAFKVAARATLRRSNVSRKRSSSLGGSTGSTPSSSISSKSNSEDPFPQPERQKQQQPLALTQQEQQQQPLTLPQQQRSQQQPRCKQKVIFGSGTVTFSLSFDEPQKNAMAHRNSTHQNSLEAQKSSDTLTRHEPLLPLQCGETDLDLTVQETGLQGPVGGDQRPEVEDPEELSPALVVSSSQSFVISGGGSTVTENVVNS
Description: (§1) The coding sequence of the Felis catus[52] and Homo sapiens[53] CaSR gene was synthesised by GeneArt (Thermo Fisher Scientific). The cat coding sequence was excised from the GeneArt construct and inserted in pcDNA3.1 for constitutive and transient expression or pcDNA5/ TO for inducible expression. For the human sequence the pcDNA6 vector as delivered by GeneArt was used without further sub-cloning.
(§2) All transient transfections were performed with Lipofectamine 2000 (Invitrogen) according to the manufacturer’s protocol.

cCaSR [1] = biological target: T2, cCaSR (Felis catus, UniProt C7FF08); assay: cCaSR transiently expressed in HEK293/natClytin, agonist luminescence assay; type: cell-based
T2 sequence (C7FF08 1-1081): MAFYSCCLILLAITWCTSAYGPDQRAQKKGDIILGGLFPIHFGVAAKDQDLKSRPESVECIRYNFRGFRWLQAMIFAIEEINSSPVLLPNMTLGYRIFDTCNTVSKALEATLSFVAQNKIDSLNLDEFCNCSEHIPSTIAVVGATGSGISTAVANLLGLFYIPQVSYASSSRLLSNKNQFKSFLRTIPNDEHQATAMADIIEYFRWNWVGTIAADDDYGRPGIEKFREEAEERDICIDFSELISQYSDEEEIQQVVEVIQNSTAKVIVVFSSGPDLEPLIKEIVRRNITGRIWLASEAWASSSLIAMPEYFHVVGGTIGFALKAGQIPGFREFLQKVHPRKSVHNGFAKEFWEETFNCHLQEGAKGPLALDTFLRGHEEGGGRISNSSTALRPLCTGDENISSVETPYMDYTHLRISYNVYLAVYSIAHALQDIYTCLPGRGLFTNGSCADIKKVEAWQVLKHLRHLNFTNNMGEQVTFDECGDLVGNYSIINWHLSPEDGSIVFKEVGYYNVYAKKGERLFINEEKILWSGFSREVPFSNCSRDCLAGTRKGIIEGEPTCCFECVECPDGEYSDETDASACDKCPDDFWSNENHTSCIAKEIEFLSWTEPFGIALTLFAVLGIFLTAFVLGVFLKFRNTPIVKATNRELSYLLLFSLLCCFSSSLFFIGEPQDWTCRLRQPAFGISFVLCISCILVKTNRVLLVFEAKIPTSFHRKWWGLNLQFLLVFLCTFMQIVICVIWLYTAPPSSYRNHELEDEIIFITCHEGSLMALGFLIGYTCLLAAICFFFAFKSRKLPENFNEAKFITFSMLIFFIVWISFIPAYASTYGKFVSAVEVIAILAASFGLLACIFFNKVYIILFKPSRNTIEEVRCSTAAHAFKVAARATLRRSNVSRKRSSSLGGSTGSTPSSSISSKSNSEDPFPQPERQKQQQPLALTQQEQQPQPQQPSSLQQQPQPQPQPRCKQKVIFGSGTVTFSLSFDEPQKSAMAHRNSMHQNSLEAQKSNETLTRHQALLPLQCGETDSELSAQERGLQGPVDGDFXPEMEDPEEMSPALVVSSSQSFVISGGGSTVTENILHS
Description: as §1, §2

cCaSR [2] = biological target: T2, cCaSR; assay: cell-based
cCaSR [3] = biological target: T2, cCaSR; assay: cCaSR PAM luminescence assay, double injection with 0.5 mM CaCl2, HEK293/T-REx/natClytin-cCaSR; settings: Supplementary Table I, PAM assay, dash = no activity
[4] = biological target: domestic cat Calcium Sensing Receptor (cCaSR) (Felis catus)
[5] = biological target: domestic cat Calcium Sensing Receptor (cCaSR) (Felis catus); remark: listed apart in the source
cCaSR [6] = biological target: T2, cCaSR
cCaSR [7] = assay: cCaSR PAM luminescence assay, double injection with 0.5 mM CaCl2, HEK293/T-REx/natClytin-cCaSR; settings: Supplementary Table I, PAM assay, dash = no activity
cCaSR [8] = settings: for EC50 Ago (M): Supplementary Table I, dash = no activity
cCaSR [9] = assay: cCaSR transiently expressed in HEK293/natClytin, agonist luminescence assay; type: cell-based, Felis catus; settings: transiently expressed cCaSR; > 3 mM = maximal response not reached
Description: as §1, §2

[10] = transiently expressed hCaSR, > 3 mM = maximal response not reached, read-out: hCaSR EC50
[11] = transiently expressed cCaSR, > 3 mM = maximal response not reached, read-out: cCaSR EC50
[12] = cCaSR stable EC50(mM), stably expressed cCaSR, Fig. 6b, > 3 mM = maximal response not reached
[13] = EC50 Value (heat map Fig. 5), cCaSR agonists, heat map
[14] = cCaSR activity, agonist assay, stable inducible cCaSR line, at least three wells
[15] = EC50 Ago (M), Supplementary Table I, agonist assay, > 0.01 M = maximal response not reached
[16] = EC50 (M), agonist assay, stable inducible cCaSR line, > 0.01 M = maximal response not reached
[17] = read-out: cCaSR activity, agonist assay, stable inducible cCaSR line, at least three wells

pEC50 (hCaSR; [10]) | pEC50 (cCaSR [1]; [11]) | EC50 (cCaSR [2]; [12]) | EC50 PAM (M) (cCaSR [3]) | pEC50 (cCaSR [2]; [14]) | EC50 (cCaSR [2]; [16]) | Compound | EC50 (cCaSR [2]; [15]) | also measured
< 2.52 | < 2.52 | > 3 mM |  |  |  | NCCCCN [Putrescine] |  | 
< 2.52 | < 2.52 | > 3 mM | - | < 2.00 |  | C[C@H](NC(=O)CC[C@H](N)C(=O)O)C(=O)O [γ-Glu-Ala] |  | pEC50 (cCaSR [2]; [13]): 2.53
 |  |  |  |  |  | Poly-L-arginine (peptide) |  | EC50 of agonist activity, luminescence (natClytin) in HEK T-Rex/natClytin cells inducibly expressing cCaSR, calcium-free buffer; activity grade +++ [4]: 0.00101 mM; EC50 for cCaSR (stably and transiently expressed) against the EC50 for hCaSR, luminescence dose response in HEK293/natClytin cells [5]: 2.5 fold
2.39 | 2.44 | 6.9 mM | - |  | 4.22 mM | CC(C)[C@H](NC(=O)CC[C@H](N)C(=O)O)C(=O)NCC(=O)O [γ-Glu-Val-Gly] |  | 
1.92 | 1.93 |  | - | 2.00 to 3.00 | 4.11 mM | N[C@@H](CC(=O)O)C(=O)O [L-Aspartic acid] | 4.11 mM | agonist activity on cCaSR (in words) (cCaSR [6]): strong agonist activity
< 2.52 | < 2.52 | > 3 mM | - | 2.00 to 3.00 | 4.52 mM | CC(C)[C@H](NC(=O)CC[C@H](N)C(=O)O)C(=O)O [γ-Glu-Val] | 4.52 mM | 
3.80 | 3.55 | 0.04 mM |  |  |  | NC[C@H]1O[C@H](O[C@H]2[C@H](O)[C@@H](O[C@H]3O[C@H](CO)[C@@H](O)[C@H](N)[C@H]3O)[C@H](N)C[C@@H]2N)[C@H](N)C[C@@H]1O [Tobramycin, reference compound] |  | EC50 Ago (M) (cCaSR [6]; Supplementary Table I, agonist assay, dash = no activity): -
 |  |  |  |  |  | CNc1ccc2oc(C[C@@H]3OC4(CC[C@@H]3C)O[C@H](C(C)C(=O)c3ccc[nH]3)[C@H](C)C[C@H]4C)nc2c1C(=O)O (some centres unmarked) [Calcium Ionophore, reference compound] |  | EC50 PAM (M) (cCaSR [7]): -; EC50 Ago (M) (cCaSR [8]; agonist assay): -
< 2.52 | < 2.52 | > 3 mM | - | 2.00 to 3.00 | 2.65 mM | CC[C@H](NC(=O)CC[C@H](N)C(=O)O)C(=O)NCC(=O)O [γ-Glu-Abu-Gly] |  | 

Compound | pEC50 (hCaSR; [10]) | pEC50 (cCaSR [1]; [11]) | EC50 (cCaSR [2]; [12]) | EC50 PAM (M) (cCaSR [3]) | pEC50 (cCaSR [2]; [14]) | EC50 (cCaSR [2]; [16]) | EC50 (cCaSR [2]; [15]) | also measured
N[C@@H](CCC(=O)O)C(=O)O [L-Glutamic acid] | < 2.52 | < 2.52 |  | - | < 2.00 |  | 9.16 mM | pEC50 (cCaSR [2]; [13]): 2.04; EC50 (cCaSR [2]; cCaSR stable EC50(mM), […], > 3 mM = maximal response not reached): > 3 mM; agonist activity on cCaSR (in words) (cCaSR [6]): strong agonist activity
NCCCCNCCCN [Spermidine] |  |  | 2.3 mM | - | 2.00 to 3.00 | 2.49 mM | 2.5 mM | pEC50 (hCaSR): 2.89; pEC50 (cCaSR [1]): 2.96; agonist activity on cCaSR (in words) (cCaSR [6]): agonists
Poly-L-arginine |  |  |  | - |  |  |  | hCaSR EC50 (hCaSR; transiently expressed hCaSR): 2.5 µg/mL; cCaSR EC50 (cCaSR [1]; transiently expressed cCaSR): 2.9 µg/mL; cCaSR stable EC50 (cCaSR [6]): 8.0 µg/mL; pEC50 (cCaSR [6]; agonist assay, stable inducible cCaSR line, > 0.01 M = maximal response not reached): 5.99; pEC50 (cCaSR [6]; read-out: EC50 Ago, Supplementary Table I, agonist assay, > 0.01 M = maximal response not reached): 5.99; pEC50 (cCaSR [6]; [17]): > 3.00
CN[C@@H]1[C@@H](O)[C@@H](O[C@@H]2[C@@H](O)[C@H](O[C@H]3O[C@H]([C@@H](C)O)[C@@H](O)[C@H](O)[C@H]3N)[C@@H](N)C[C@H]2N)OC[C@]1(C)O [Geneticin, reference compound] | 2.44 |  |  |  |  |  |  | EC50 PAM (M) (cCaSR [7]): -; pEC50 (cCaSR [9]): 2.52; EC50 Ago (M) (cCaSR [8]; agonist assay): -; pEC50 (cCaSR [8]; [17]): < 2.00; pEC50 (cCaSR [8]; read-out: cCaSR stable EC50, […], > 3 mM = maximal response not reached): 2.96
